One data set deals with T1, NLRP3 (Homo sapiens, UniProt Q96P20).
T1 construct: Seed THP-1 cells (25,000 cells/well) containing 1.0 μg/ml LPS in 40 μl of RPMI medium; host or cells: THP-1 cells
The experiment in a line: THP-1 cells pyroptosis assay. In kind it is cell-based. The settings on record: LPS 1 μg/ml, compound 3 hrs, nigericin 5 μM 1 hr, resazurin readout. In a few lines:
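LPS-primed (1 μg/ml) THP-1 cells in serum-free RPMI were treated 3 h with compound (8-point half-log, top 10 μM; 0.1% DMSO), then with 5 μM nigericin for 1 h at 37°C. Viability was read by 100 μM resazurin (ex 560/em 590 nm) after 1–2 h. IC50 came from 4-parameter nonlinear regression.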
For orientation: The colour change of resazurin is a common sign of viable cells or microbes.

Data set [1] is described as follows: PK protocol, intravenous administration in rats. The settings on record: rat, plasma, male Sprague Dawley rats, 1 mg/kg; for Vd: read-out: Vdss. It is filed as in vivo. How it is done: Pharmacokinetic parameters were determined in male Sprague Dawley rats (Vital River Laboratory Animal Technology Co Ltd, Beijing, China, 7-9 weeks old). Animals were group housed during the study and maintained under a 12 h light/dark cycle.
For intravenous administration, compounds were formulated as a solution in DMSO:PBS [10:90] in 2 mL/kg dosing volume and administered via tail vein.
Serial blood samples (about 200 μL) were taken from each animal at each of 8 time-points post dose (0.083, 0.25, 0.5, 1, 2, 4, 8 and 24 h). Samples were held on ice for no longer than 30 minutes before centrifugation (5,696 rpm (3,000 g) for 15 minutes) for plasma generation. Plasma was frozen on dry ice prior to bioanalysis. PK parameters were generated from LC-MS/MS data using Phoenix WinNonlin 6.3 software.

For orientation: IC50 means the concentration at which inhibition is half-maximal. Read a high IC50 as lower potency. The AUC is concentration integrated over time. Low readings indicate low exposure, high ones high exposure. As usually defined, the clearance is the rate of elimination divided by the concentration. Low readings indicate inefficient removal, high ones efficient removal. In general, half-life refers to how long it takes for the measured level to halve. A high value points to slow loss.

Molecules are shown by their SMILES.

T1 sequence (Q96P20 whole entry): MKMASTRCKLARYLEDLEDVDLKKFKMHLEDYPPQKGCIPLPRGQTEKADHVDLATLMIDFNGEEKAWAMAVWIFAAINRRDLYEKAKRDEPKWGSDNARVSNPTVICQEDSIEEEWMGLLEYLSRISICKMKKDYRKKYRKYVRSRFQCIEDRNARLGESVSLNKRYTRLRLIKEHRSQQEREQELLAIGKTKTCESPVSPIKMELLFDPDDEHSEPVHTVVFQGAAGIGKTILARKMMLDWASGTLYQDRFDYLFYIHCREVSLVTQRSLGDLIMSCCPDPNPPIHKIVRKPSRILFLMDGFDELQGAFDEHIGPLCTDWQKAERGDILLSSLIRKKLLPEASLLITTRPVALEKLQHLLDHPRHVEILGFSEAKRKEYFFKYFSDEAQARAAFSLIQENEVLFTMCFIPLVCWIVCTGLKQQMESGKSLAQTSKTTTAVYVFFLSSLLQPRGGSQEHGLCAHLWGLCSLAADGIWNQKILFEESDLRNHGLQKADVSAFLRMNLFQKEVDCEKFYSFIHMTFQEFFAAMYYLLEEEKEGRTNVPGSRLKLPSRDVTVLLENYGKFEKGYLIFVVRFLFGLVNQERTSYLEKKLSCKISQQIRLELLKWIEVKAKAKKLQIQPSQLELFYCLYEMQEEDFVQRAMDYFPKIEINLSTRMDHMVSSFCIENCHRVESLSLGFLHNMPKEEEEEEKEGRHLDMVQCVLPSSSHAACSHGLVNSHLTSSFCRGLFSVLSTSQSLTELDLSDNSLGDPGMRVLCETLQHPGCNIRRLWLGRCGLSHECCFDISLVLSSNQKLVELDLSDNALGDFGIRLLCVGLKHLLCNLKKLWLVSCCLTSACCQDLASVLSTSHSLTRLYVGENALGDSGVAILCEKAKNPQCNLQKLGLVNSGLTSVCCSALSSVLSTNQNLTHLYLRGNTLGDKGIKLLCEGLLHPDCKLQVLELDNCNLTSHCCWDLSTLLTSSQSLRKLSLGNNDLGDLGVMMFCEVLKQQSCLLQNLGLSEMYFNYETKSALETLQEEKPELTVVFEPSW

`COc1cc(-c2ccc3c(c2CC(=O)NS(=O)(=O)c2ccc(C(C)(C)O)cc2C)CCC3)ccn1` [Example 85, N-((4-(2-Hydroxypropan-2-yl)-2-methylphenyl)sulfonyl)-2-(5-(2-methoxypyridin-4-yl)-2,3-dihydro-1H-inden-4-yl)acetamide]: the IC50 at NLRP3 was not above 500 nM. Also, in data set [1], the area under the curve (AUC) turned out to be 926 ng·h/mL, the clearance amounted to 29.1 mL/min/kg, the half-life is 19.8 h and the Vd turned out to be 12.2 L/kg.

As for `COc1cc(-c2cc(F)cc(C(C)C)c2CC(=O)NS(=O)(=O)c2ccc(C(C)C)cc2)ccn1` [Example 110, 2-(4-Fluoro-2-isopropyl-6-(2-methoxypyridin-4-yl)phenyl)-N-((4-isopropylphenyl)sulfonyl)acetamide], the IC50 on NLRP3 is not above 1000 nM. In data set [1], the AUC was 1260 ng·h/mL, the clearance worked out at 13.3 mL/min/kg, the half-life was 7.2 h and the Vd was found to be 6.72 L/kg.

On NLRP3, `C=C(C)c1ccc(C)c(S(=O)(=O)NC(=O)Cc2c(-c3ccnc(OC)c3)cc(F)cc2C(C)C)c1` [Example 209] returned an IC50 not above 500 nM.

Source of the values: patent US12030879B2, “Sulfonyl acetamides as NLRP3 inhibitors” (Inflazome Limited, priority 2018, dated 2024).
